The target of assay [1] is T1, HCV polymerase (NS5B) type 1b (Hepatitis C virus genotype 1b, UniProt P26663).
T1 construct: a region encoding NS5B (J Virol 1991 March, 65(3), 1105-13, 544 amino acids after deletion of 47 amino acids on the C-terminal); 6xHis (C); made in house; host or cells: Escherichia coli
Kind of assay: Assay of enzyme (HCV polymerase) inhibitory activity, type 1b enzyme. Type of assay: biochemical, HCV BK strain (type 1b). The essentials: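 Polymerase activity was followed as radiolabelled UTP incorporation by E. coli-expressed, His-tagged NS5B of HCV type 1b lacking its last 47 residues. Conditions: 2 μM UTP, 50 μM other NTPs, Mg2+ buffer at pH 7.5, 25 °C for 60 min. Inhibition relative to compound-free reactions gave IC50.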

The target of assay [2] is T2, HCV polymerase (NS5B) type 1a (Hepatitis C virus genotype 1a, UniProt P26664).
T2 construct: made in house; host or cells: Escherichia coli (by the 'similar method' of the 1b enzyme)
Kind of assay: Assay of enzyme (HCV polymerase) inhibitory activity, type 1a enzyme. Type of assay: biochemical, HCV type 1a (cloned from the blood of patients). The method in brief: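 IC50 values derive from radioactivity of newly synthesized RNA with versus without test compound. The enzyme was C-terminally truncated type 1a NS5B, 1.5 μg/ml, run 60 min at 25° C with 3H-UTP-labelled nucleotides.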

Setting [3] is: HCV polymerase inhibitory activity IC50, 1b, type 1b enzyme.
Setting [4] is: HCV polymerase inhibitory activity IC50, 1a, type 1a enzyme.
[5] abbreviates: HCV polymerase inhibitory activity (IC50), 1b, type 1b enzyme 0.5 μg/ml, 25° C., 60 min.
[6] abbreviates: HCV polymerase inhibitory activity (IC50), 1a, type 1a enzyme 1.5 μg/ml, 25° C., 60 min.

SMILES strings stand for the structures.

Among the data in US8017612B2, “Piperazine compound and use thereof as a HCV polymerase inhibitor” (priority 2006, dated 2011) are IC50 values, retold here.

Consider `O=C(NCc1ccc(OC(F)(F)F)cc1)[C@H]1CNCCN1S(=O)(=O)c1ccc(OC(F)(F)F)cc1` [Example 783, (R)-1-(4-trifluoromethoxy-benzenesulfonyl)-piperazine-2-carboxylic acid 4-trifluoromethoxy-benzylamide], for which the 50% inhibitory concentration (IC50) in assay [1] (setting [3]) and in assay [2] (setting [4]) was above 1000 nM in each case.

Regarding `CCCc1ccc(CNC(=O)[C@H]2CN(C(C)=O)CCN2S(=O)(=O)c2ccc(OC(F)(F)F)cc2)c(=O)[nH]1` [Example 646, (R)-4-acetyl-1-(4-trifluoromethoxy-benzenesulfonyl)-piperazine-2-carboxylic acid (2-oxo-6-propyl-1,2-dihydro-pyridin-3-ylmethyl)-amide], the IC50 in assay [1] (setting [5]) and in assay [2] (setting [6]) was above 1000 nM each time.

Turning to `CC(C)c1ccc(CNC(=O)[C@H]2CN(C(=O)Nc3ccnc(C(=O)OC(C)(C)C)c3)CCN2S(=O)(=O)c2ccc(C(F)(F)F)cc2)cc1` [Example 301, 4-{[(R)-3-(4-isopropyl-benzylcarbamoyl)-4-(4-trifluoromethyl-benzenesulfonyl)-piperazine-1-carbonyl]-amino}-pyridine-2-carboxylic acid tert-butyl ester], the IC50 in assay [1] (setting [5]) and in assay [2] (setting [6]) was below 100 nM throughout.

On to `CCCc1ccc(CNC(=O)[C@H]2CN(c3nc4cn[nH]c(=O)c4s3)CCN2S(=O)(=O)c2ccc(OC(F)(F)F)cc2)cc1` [Example 819, (R)-4-(7-oxo-6,7-dihydro-thiazolo[4,5-d]pyridazin-2-yl)-1-(4-trifluoromethoxy-benzenesulfonyl)-piperazine-2-carboxylic acid 4-propyl-benzylamide], for which the IC50 in assay [1] (setting [3]) and in assay [2] (setting [4]) was below 100 nM each time.

Turning to `CNC(=O)c1n[nH]c(=O)c2sc(N3CCN(S(=O)(=O)c4ccc(OC(F)(F)F)cc4)[C@@H](C(=O)NCc4ccc(OC(F)(F)F)cc4)C3)nc12` [Example 875, 7-oxo-2-[(R)-4-(4-trifluoromethoxy-benzenesulfonyl)-3-(4-trifluoromethoxy-benzylcarbamoyl)-piperazin-1-yl]-6,7-dihydro-thiazolo[4,5-d]pyridazine-4-carboxylic acid methylamide], the IC50 in assay [1] (setting [3]) and in assay [2] (setting [4]) was below 100 nM in each case.

As to `COc1ccc(S(=O)(=O)N2CCN(C(C)=O)C[C@@H]2C(=O)NCc2ccc(C(C)C)cc2)cc1` [Example 214, (R)-4-acetyl-1-(4-methoxy-benzenesulfonyl)-piperazine-2-carboxylic acid 4-isopropyl-benzylamide], the IC50 in assay [1] (setting [5]) and in assay [2] (setting [6]) was 100 to 1000 nM throughout.

On to `CCCCc1ccc(CNC(=O)[C@H]2CN(c3cnc4cncc(C(=O)O)c4n3)CCN2S(=O)(=O)c2ccc(CC)cc2)cc1` [Example 855, 2-[(R)-3-(4-butyl-benzylcarbamoyl)-4-(4-ethyl-benzenesulfonyl)-piperazin-1-yl]-pyrido[3,4-b]pyrazine-8-carboxylic acid], for which the IC50 in assay [1] (setting [3]) and in assay [2] (setting [4]) was below 100 nM in each case.

On to `CC(=O)N1CCN(S(=O)(=O)c2ccc(C3CC3)cc2)[C@@H](C(=O)NCc2ccc(C(C)C)cc2)C1` [Example 400, (R)-4-acetyl-1-(4-cyclopropyl-benzenesulfonyl)-piperazine-2-carboxylic acid 4-isopropyl-benzylamide], for which the IC50 in assay [1] (setting [5]) and in assay [2] (setting [6]) was below 100 nM in each case.

Regarding `CCCc1ccc(CNC(=O)[C@H]2CN(c3nc(C)ns3)CCN2S(=O)(=O)c2ccc(OC(F)(F)F)cc2)cc1` [Example 563, (R)-4-(3-methyl-[1,2,4]thiadiazol-5-yl)-1-(4-trifluoromethoxy-benzenesulfonyl)-piperazine-2-carboxylic acid 4-propyl-benzylamide], the IC50 in assay [1] (setting [5]) and in assay [2] (setting [6]) was below 100 nM throughout.

In the case of `CC(=O)N1CCN(S(=O)(=O)c2ccc(C(C)C)cc2)[C@@H](C(=O)NCc2ccc(C(C)(C)C)cc2)C1` [Example 253, (R)-4-acetyl-1-(4-isopropyl-benzenesulfonyl)-piperazine-2-carboxylic acid 4-tert-butyl-benzylamide], the IC50 in assay [1] (setting [5]) and in assay [2] (setting [6]) was below 100 nM in each case.

On to `CC(=O)N1CCN(S(=O)(=O)c2ccc(I)cc2)C(C(=O)NCc2ccc(C(F)(F)F)cc2)C1` (stereo not drawn) [Example 61, 4-acetyl-1-(4-iodo-benzenesulfonyl)-piperazine-2-carboxylic acid 4-trifluoromethyl-benzylamide], for which the half-inhibitory concentration (IC50) in assay [1] (setting [5]) and in assay [2] (setting [6]) was above 1000 nM in each case.

Take `CCC(F)(F)c1ccc(CNC(=O)[C@H]2CN(c3nc4nn[nH]c(=O)c4s3)CCN2S(=O)(=O)c2ccc(OC(F)(F)F)cc2)cc1` [Example 640, (R)-4-(4-oxo-3,4-dihydro-thiazolo[4,5-d][1,2,3]triazin-6-yl)-1-(4-trifluoromethoxy-benzenesulfonyl)-piperazine-2-carboxylic acid 4-(1,1-difluoro-propyl)-benzylamide]: the IC50 in assay [1] (setting [5]) and in assay [2] (setting [6]) was below 100 nM throughout.

With `NC(=O)c1n[nH]c(=O)c2sc(N3CCN(S(=O)(=O)c4ccc(OC(F)(F)F)cc4)[C@@H](C(=O)NCc4ccc(OC(F)(F)F)cc4)C3)nc12` [Example 876, 7-oxo-2-[(R)-4-(4-trifluoromethoxy-benzenesulfonyl)-3-(4-trifluoromethoxy-benzylcarbamoyl)-piperazin-1-yl]-6,7-dihydro-thiazolo[4,5-d]pyridazine-4-carboxylic acid amide], the concentration for half-maximal inhibition (IC50) in assay [1] (setting [3]) and in assay [2] (setting [4]) was below 100 nM in each case.

For `O=C(NCc1ccc(OC(F)(F)F)cc1)[C@H]1CN(c2nc3nc(Cl)nc(Cl)c3s2)CCN1S(=O)(=O)c1ccc(OC(F)(F)F)cc1` [Example 800, (R)-4-(5,7-dichloro-thiazolo[4,5-d]pyrimidin-2-yl)-1-(4-trifluoromethoxy-benzenesulfonyl)-piperazine-2-carboxylic acid 4-trifluoromethoxy-benzylamide], the IC50 in assay [1] (setting [3]) and in assay [2] (setting [4]) was below 100 nM each time.

`CCC(F)(F)c1ccc(CNC(=O)[C@H]2CN(C(=O)Cc3nnnn3C)CCN2S(=O)(=O)c2ccc(OC(F)(F)F)cc2)cc1` [Example 519, (R)-4-[2-(1-methyl-1H-tetrazol-5-yl)-acetyl]-1-(4-trifluoromethoxy-benzenesulfonyl)-piperazine-2-carboxylic acid 4-(1,1-difluoro-propyl)-benzylamide]: the IC50 in assay [1] (setting [5]) and in assay [2] (setting [6]) was 100 to 1000 nM throughout.

As for `COc1ccccc1NC(=O)N1CCN(S(=O)(=O)c2ccc(C(F)(F)F)cc2)[C@@H](C(=O)NCc2ccc(C(C)C)cc2)C1` [Example 272, (R)-4-(4-trifluoromethyl-benzenesulfonyl)-piperazine-1,3-dicarboxylic acid 3-(4-isopropyl-benzylamide) 1-[(2-methoxy-phenyl)-amide]], the IC50 (in general, the concentration that gives 50% inhibition) in assay [1] (setting [5]) was 100 to 1000 nM; in assay [2] (setting [6]), above 1000 nM.

As for `CC(=O)N1CCN(S(=O)(=O)c2ccc(CO)cc2)C(C(=O)NCc2ccc(C(F)(F)F)cc2)C1` (stereo not drawn) [Example 132, 4-acetyl-1-(4-hydroxymethyl-benzenesulfonyl)-piperazine-2-carboxylic acid 4-trifluoromethyl-benzylamide], the IC50 in assay [1] (setting [5]) and in assay [2] (setting [6]) was above 1000 nM each time.

In the case of `CCC(F)(F)c1ccc(CNC(=O)[C@H]2CN(c3cnc4cccc(Cl)c4n3)CCN2S(=O)(=O)c2ccc(OC(F)(F)F)cc2)cc1` [Example 742, (R)-4-(8-chloro-quinoxalin-2-yl)-1-(4-trifluoromethoxy-benzenesulfonyl)-piperazine-2-carboxylic acid 4-(1,1-difluoro-propyl)-benzylamide], the IC50 in assay [1] (setting [3]) is below 100 nM; in assay [2] (setting [4]), 100 to 1000 nM.

In the case of `CCC(C)(C)c1ccc(CNC(=O)[C@H]2CN(c3cnc4cncc(C(=O)O)c4n3)CCN2S(=O)(=O)c2ccc(Cl)s2)cc1` [Example 858, 2-{(R)-4-(5-chloro-thiophene-2-sulfonyl)-3-[4-(1,1-dimethyl-propyl)-benzylcarbamoyl]-piperazin-1-yl}-pyrido[3,4-b]pyrazine-8-carboxylic acid], the IC50 in assay [1] (setting [3]) and in assay [2] (setting [4]) was below 100 nM in each case.

On to `CCCc1ccc(CNC(=O)[C@H]2CN(c3cnc(C(=O)O)cn3)CCN2S(=O)(=O)c2ccc(Br)s2)cc1` [Example 699, (R)-4-(5-bromo-thiophene-2-sulfonyl)-3-(4-propyl-benzylcarbamoyl)-3,4,5,6-tetrahydro-2H-[1,2′]bipyrazinyl-5′-carboxylic acid], for which the concentration for half-maximal inhibition (IC50) in assay [1] (setting [3]) and in assay [2] (setting [4]) was below 100 nM in each case.

Take `CCC(F)(F)c1ccc(CNC(=O)[C@H]2CN(c3cnc4cncc(C(=O)O)c4n3)CCN2S(=O)(=O)c2ccc(OC(F)(F)F)cc2)cc1` [Example 836, 2-[(R)-3-[4-(1,1-difluoro-propyl)-benzylcarbamoyl]-4-(4-trifluoromethoxy-benzenesulfonyl)-piperazin-1-yl]-pyrido[3,4-b]pyrazine-8-carboxylic acid]: the IC50 in assay [1] (setting [3]) and in assay [2] (setting [4]) was below 100 nM in each case.
